{"source": "patent US6355226B1", "about": "“Topical treatment of skin disease and eye afflictions” (Advanced Viral Research Corp., priority 1997, dated 2002)", "origin": "cited, not measured here", "key": {"[1]": {"test_system": "herpes simplex 1 and 2 (HSV 1 and 2)"}, "[2]": {"test_system": "genital herpes infection", "conditions": "topically administered ointment"}, "[3]": {"test_system": "cytomegalovirus (CM)"}}}
{"smiles": "Nc1nc2c(ncn2COCCO)c(=O)[nH]1", "note": "[acyclovir]", "values": [{"measurement": "effectiveness against HSV 1 and 2", "setting": "[1]", "result": "specifically effective"}, {"measurement": "effect on recurrent genital herpes disease", "setting": "[2]", "result": "little if any, effect"}, {"measurement": "effectiveness in primary first occurrence of genital herpes infection", "setting": "[2]", "result": "seems to be effective"}, {"measurement": "effectiveness against cytomegalovirus", "setting": "[3]", "result": "not against cytomegalovirus"}]}
